{
  "source": "patent US5006515A",
  "about": "“Pharmaceuticals, phosphorus-containing 2-isoxazolines and isoxazoles contained therein” (Hoechst Aktiengesellschaft, priority 1987, dated 1991)",
  "key": {"active Arthus reaction": {"system": "active Arthus reaction", "experiment": "Active Arthus reaction in the rat", "type": "in vivo, Sprague-Dawley rats", "settings": "for change in vivo at 50 mg/kg: oral dose 50 mg/kg; for change in vivo at 25 mg/kg: oral dose 25 mg/kg", "procedure": "The experimental animals used were female and male Sprague-Dawley rats with a body weight between 80 and 100 g which received subcutaneous injections into the tail-head of 0.5 ml of an emulsion of pertussis vaccine and ovalbumin in liquid paraffin. After two weeks, the rats were divided into groups each of 8 animals. 24 hours and 1 hour before induction of the Arthus reaction by injection of 0.1 ml of a 0.4% strength ovalbumin solution into the right hind paw, the particular test substance or the pure vehicle (positive control) was administered orally, sodium chloride solution was injected into the left paw. One group of unsensitized animals (negative control group) was likewise treated with ovalbumin in order to be able to rule out nonspecific reactions to the protein. The parameter used for measuring the action of the product was the percentage change in the increase in paw volume compared with that in the control group which was sensitized but untreated (positive control) 4 hours after ovalbumin challenge, when the swelling had reached its maximum."}, "Acute toxicity": {"experiment": "Acute toxicity", "set-up": "species or system mice", "settings": "mouse, in vivo, single dose, mortality within 7 days", "procedure": "The LD50 values were determined by the standard method via the mortality occurring within 7 days in NMRI (Naval Medical Research Institute) mice (6 animals per dose) after a single intraperitoneal (i.p.) or intravenous (i.v.) dose."}, "peritoneal macrophages": {"system": "peritoneal macrophages", "experiment": "Stimulation of the release of lysosomal enzymes from peritoneal macrophages (exocytosis)", "settings": "single i.p. dose of 40 mg/kg; maximum activation by Example 34 = 100%"}, "leucine aminopeptidase": {"target": "leucine aminopeptidase", "experiment": "Inhibition of leucine aminopeptidase", "type": "biochemical", "settings": "substrate L-leucine 4-nitroanilide", "procedure": "The activity of the enzyme aminopeptidase B was determined photometrically using the substrate L-lysine 2-naphthylamide at room temperature. […] In the same way, the inhibition of leucine aminopeptidase was investigated using L-leucine 4-nitroanilide as enzyme substrate. The IC50 values are compiled in Table 6."}, "[1]": {"system": "DTH reaction to sheep erythrocytes", "experiment": "Delayed-type hypersensitivity (DTH) reaction to sheep erythrocytes", "type": "in vivo, female NMRI mice", "settings": "single i.p. dose of 40 mg/kg; maximal stimulation by Example 34 = 100%", "procedure": "Groups each comprising 5 female NMRI mice with a body weight of 18 to 20 g were formed, and each animal was given 10^6 or 10^9 sheep red blood cells intravenously. Sheep erythrocytes are regarded in immunology as a standard antigen with which it is possible to check cellular and humoral immunoreactivity, especially the functioning of the T-cell-dependent component of the immune system, the so-called T-helper cells. The test substances were administered, in intraperitoneal doses of 5 to 100 mg/kg in physiological saline, at the same time as the antigen. After 5 days, each animal was given an injection of 2×10^8 sheep erythrocytes into the footpad. 24 hours later, the swelling of the foot was measured. The foot swelling is induced by a skin reaction of the delayed type (DTH reaction) and, as is known to those skilled in the art, is a measure of the cellular immune response (J. Immunol. 101 (1968), 830-845). The test results obtained with the product of Example 34, by way of example, are compiled in Table 7 and illustrate that the compounds of the formula I--administered prophylactically--are able to increase the cellular immune response after immunization with the antigen by stimulation of the T-cell system, with the stimulant action reaching its optimum in this experiment at a dose of 25 mg/kg."}, "[2]": {"settings": "Rattus norvegicus, oral dose 70 mg/kg, 4 h after ovalbumin challenge, read-out: Active Arthus reaction % change"}, "[3]": {"settings": "Rattus norvegicus, po, 4 h, 4 h after ovalbumin challenge"}, "[4]": {"settings": "Rattus norvegicus, po, 4 h, read-out: Active Arthus reaction % change"}},
  "note": "Like-named read-outs stand apart in the source and are kept apart here.",
  "data": [
    {"molecule": "CCOP(=O)(C1CC(c2ccccc2)=NO1)N1CCCC1", "note": "(stereo not drawn) [Example 55, 3-Phenyl-2-isoxazolin-5-yl(P-ethoxy)phosphonic acid pyrrolidide]", "values": [
      {"measurement": "change in vivo at 70 mg/kg", "setting": "active Arthus reaction; [2]", "value": -23, "unit": "%"},
      {"measurement": "LD50 at 168 h", "setting": "Acute toxicity; iv", "value": "> 200", "unit": "mg/kg"}
    ]},
    {"molecule": "COP(=O)(OC)C1CC(c2ccccc2)=NO1", "note": "(racemic) [Example 5, Dimethyl 3-phenyl-2-isoxazolin-5-ylphosphonate]", "values": [
      {"measurement": "Active Arthus reaction % change", "setting": "active Arthus reaction; oral dose 100 mg/kg, 4 h after ovalbumin challenge", "value": -20, "unit": "%"},
      {"measurement": "LD50 at 168 h", "setting": "Acute toxicity; ip", "value": "300 to 600", "unit": "mg/kg"},
      {"measurement": "Relative stimulation of macrophage activity: Exocytosis", "setting": "peritoneal macrophages", "value": 54, "unit": "%"}
    ]},
    {"molecule": "O=P(O)(O)C1CC(c2ccncc2)=NO1", "note": "(stereo not drawn) [Example 43]", "values": [
      {"measurement": "change in vivo at 50 mg/kg", "setting": "active Arthus reaction; [3]", "value": -14, "unit": "%"},
      {"measurement": "LD50 at 168 h", "setting": "Acute toxicity; iv", "value": "> 200", "unit": "mg/kg"}
    ]},
    {"molecule": "COP(=O)(OC)C1CC(c2ccc(F)cc2)=NO1", "note": "(stereo not drawn) [Example 65]", "values": [
      {"measurement": "LD50 at 168 h", "setting": "Acute toxicity; ip", "value": "> 300", "unit": "mg/kg"}
    ]},
    {"molecule": "O=P(O)(O)C1CC(c2cccc3ccccc23)=NO1", "note": "(stereo not drawn) [Example 45]", "values": [
      {"measurement": "change in vivo at 50 mg/kg", "setting": "active Arthus reaction; [3]", "value": -25, "unit": "%"},
      {"measurement": "LD50 at 168 h", "setting": "Acute toxicity; ip", "value": "75 to 150", "unit": "mg/kg"},
      {"measurement": "Leucine aminopeptidase IC50", "setting": "leucine aminopeptidase", "value": 92, "unit": "μug/ml"}
    ]},
    {"molecule": "CCOP(=O)(O)C1CC(c2ccccc2)=NO1", "note": "(stereo not drawn) [Example 27, Monoethyl 3-phenyl-2-isoxazolin-5-ylphosphonate]", "values": [
      {"measurement": "change in vivo at 70 mg/kg", "setting": "active Arthus reaction; [2]", "value": 108, "unit": "%"},
      {"measurement": "LD50 at 168 h", "setting": "Acute toxicity; iv", "value": "> 200", "unit": "mg/kg"},
      {"measurement": "Relative stimulation of the DTH reaction", "setting": "[1]", "value": 94, "unit": "%"}
    ]},
    {"molecule": "CCOP(=O)(O)C1CC(c2ccc(OC)cc2)=NO1", "note": "(stereo not drawn) [Example 28, Monoethyl ammonium 3-(4-methoxyphenyl)-2-isoxazolin-5-ylphosphonate]", "values": [
      {"measurement": "change in vivo at 25 mg/kg", "setting": "active Arthus reaction; Rattus norvegicus, 4 h after ovalbumin challenge, read-out: Active Arthus reaction % change", "value": -12, "unit": "%"},
      {"measurement": "LD50 at 168 h", "setting": "Acute toxicity; iv", "value": "> 200", "unit": "mg/kg"}
    ]},
    {"molecule": "CP(=O)(O)C1CC(Cc2ccccc2)=NO1", "note": "(stereo not drawn) [Example 31]", "values": [
      {"measurement": "change in vivo at 50 mg/kg", "setting": "active Arthus reaction; [3]", "value": 66, "unit": "%"},
      {"measurement": "LD50 at 168 h", "setting": "Acute toxicity; iv", "value": "> 200", "unit": "mg/kg"}
    ]},
    {"molecule": "COc1ccc(C2=NOC(P(=O)(O)O)C2)cc1", "note": "(stereo not drawn) [Example 48]", "values": [
      {"measurement": "change in vivo at 100 mg/kg", "setting": "active Arthus reaction; Rattus norvegicus, po, 4 h, oral dose 100 mg/kg, 4 h after ovalbumin challenge, read-out: Active Arthus reaction % change", "value": 10, "unit": "%"},
      {"measurement": "LD50 at 168 h", "setting": "Acute toxicity; ip", "value": "300 to 600", "unit": "mg/kg"},
      {"measurement": "Leucine aminopeptidase IC50", "setting": "leucine aminopeptidase", "value": 100, "unit": "μug/ml"}
    ]},
    {"molecule": "CP(=O)(O)CC1CC(Cl)=NO1", "note": "(stereo not drawn) [Example 79, 3-Chloro-2-isoxazolin-5-ylmethyl(P-methyl)phosphinic acid]", "values": [
      {"measurement": "change in vivo at 70 mg/kg", "setting": "active Arthus reaction; [4]", "value": -24, "unit": "%"}
    ]},
    {"molecule": "O=P(O)(O)c1cc(-c2ccccn2)no1", "note": "[Example 50]", "values": [
      {"measurement": "change in vivo at 25 mg/kg", "setting": "active Arthus reaction; Rattus norvegicus, po, 4 h, 4 h after ovalbumin challenge, read-out: Active Arthus reaction % change", "value": -18, "unit": "%"},
      {"measurement": "LD50 at 168 h", "setting": "Acute toxicity; iv", "value": "> 200", "unit": "mg/kg"}
    ]},
    {"molecule": "Br.CN(C)c1ccc(C2=NOC(P(=O)(O)O)C2)cc1", "note": "(stereo not drawn) [Example 71, 3-(4-Dimethylaminophenyl)-2-isoxazolin-5-ylphosphonic acid hydrobromide]", "values": [
      {"measurement": "change in vivo at 70 mg/kg", "setting": "active Arthus reaction; [4]", "value": -10, "unit": "%"},
      {"measurement": "LD50 at 168 h", "setting": "Acute toxicity; ip", "value": "150 to 300", "unit": "mg/kg"},
      {"measurement": "Leucine aminopeptidase IC50", "setting": "leucine aminopeptidase", "value": 37, "unit": "μug/ml"}
    ]},
    {"molecule": "O=P(O)(O)c1cc(-c2ccccc2)no1", "note": "[Example 46]", "values": [
      {"measurement": "change in vivo at 50 mg/kg", "setting": "active Arthus reaction; [3]", "value": -36, "unit": "%"},
      {"measurement": "LD50 at 168 h", "setting": "Acute toxicity; iv", "value": "> 200", "unit": "mg/kg"}
    ]},
    {"molecule": "COC(=O)c1ccc(C2=NOC(P(=O)(OC)OC)C2)cc1", "note": "(stereo not drawn) [Example 66, Dimethyl 3-(4-methoxycarbonylphenyl)-2-isoxazolin-5-ylphosphonate]", "values": [
      {"measurement": "change in vivo at 50 mg/kg", "setting": "active Arthus reaction; Rattus norvegicus, 4 h after ovalbumin challenge", "value": -28, "unit": "%"}
    ]},
    {"molecule": "O=C(O)c1ccc(C2=NOC(P(=O)(O)O)C2)cc1", "note": "(stereo not drawn) [Example 87]", "values": [
      {"measurement": "change in vivo at 35 mg/kg", "setting": "active Arthus reaction; Rattus norvegicus, po, 4 h, oral dose 35 mg/kg, 4 h after ovalbumin challenge, read-out: Active Arthus reaction % change", "value": -29, "unit": "%"}
    ]},
    {"molecule": "CP(=O)(O)C1CC(C(=O)O)=NO1", "note": "(stereo not drawn) [Example 102]", "values": [
      {"measurement": "change in vivo at 35 mg/kg", "setting": "active Arthus reaction; [4]", "value": -35, "unit": "%"}
    ]},
    {"molecule": "CC(C)(C)c1cc(P(=O)(O)O)on1", "note": "[Example 77, Diammonium 3-tert.butyl-5-isoxazolylphosphonate]", "values": [
      {"measurement": "change in vivo at 35 mg/kg", "setting": "active Arthus reaction; [4]", "value": -20, "unit": "%"}
    ]},
    {"molecule": "CC(C)(C)C1=NOC(CP(C)(=O)O)C1", "note": "(stereo not drawn) [Example 99]", "values": [
      {"measurement": "change in vivo at 35 mg/kg", "setting": "active Arthus reaction; [4]", "value": -32, "unit": "%"},
      {"measurement": "LD50 at 168 h", "setting": "Acute toxicity; iv", "value": "> 100", "unit": "mg/kg"}
    ]},
    {"molecule": "O=P(O)(O)c1cc(-c2ccncc2)no1", "note": "[Example 51]", "values": [
      {"measurement": "change in vivo at 50 mg/kg", "setting": "active Arthus reaction; [3]", "value": 17, "unit": "%"},
      {"measurement": "LD50 at 168 h", "setting": "Acute toxicity; iv", "value": "> 200", "unit": "mg/kg"}
    ]},
    {"molecule": "O=P(O)(O)C1CC(c2ccc(Cl)cc2)=NO1", "note": "(stereo not drawn) [Example 40]", "values": [
      {"measurement": "change in vivo at 50 mg/kg", "setting": "active Arthus reaction; [3]", "value": -23, "unit": "%"},
      {"measurement": "LD50 at 168 h", "setting": "Acute toxicity; iv", "value": "> 200", "unit": "mg/kg"}
    ]},
    {"molecule": "O=P(O)(O)C1CC(c2cccs2)=NO1", "note": "(stereo not drawn) [Example 75, 3-(2-Thienyl)-2-isoxazolin-5-ylphosphonic acid]", "values": [
      {"measurement": "change in vivo at 35 mg/kg", "setting": "active Arthus reaction; [4]", "value": -26, "unit": "%"},
      {"measurement": "LD50 at 168 h", "setting": "Acute toxicity; iv", "value": "> 100", "unit": "mg/kg"},
      {"measurement": "Leucine aminopeptidase IC50", "setting": "leucine aminopeptidase", "value": 79, "unit": "μug/ml"}
    ]}
  ]
}
